Measured values reported in ChEMBL document CHEMBL3885881, “DrugMatrix”.

Species: Rattus norvegicus
Test: DrugMatrix - Regimen: Daily Repeat
Format: toxicity, organism-based, Sprague-Dawley
Design: regimen Daily Repeat, gender Male, age 6-8 weeks
Conditions: in vivo, po, route oral GAVAGE, vehicle 100 % WATER; for URIC ACID / ALANINE AMINOTRANSFERASE / ALBUMIN / ALKALINE PHOSPHATASE / ASPARTATE AMINOTRANSFERASE / BLOOD UREA NITROGEN / CARBON DIOXIDE / CHLORIDE / CHOLESTEROL / CREATININE / GLUCOSE / LACTATE DEHYDROGENASE / LIPASE / PHOSPHORUS / POTASSIUM / SODIUM / TOTAL BILIRUBIN / TOTAL PROTEIN / CREATINE PHOSPHOKINASE: tissue Plasma; for ABSOLUTE BASOPHIL / ABSOLUTE EOSINOPHIL / ABSOLUTE LYMPHOCYTE / ABSOLUTE MONOCYTE / ABSOLUTE SEGMENTED NEUTROPHIL / BASOPHIL / EOSINOPHIL / ERYTHROCYTE COUNT / HEMATOCRIT / HEMOGLOBIN / LEUKOCYTE COUNT / LYMPHOCYTE / MEAN CORPUSCULAR HEMOGLOBIN / MEAN CORPUSCULAR HEMOGLOBIN CONCENTRATION / MEAN CORPUSCULAR VOLUME / MONOCYTE / NEUTROPHIL / NUCLEATED RED BLOOD CELLS / PLATELET COUNT: tissue Blood
[1] = 25 mg/kg, 120 h, dose level Low, time 5 day
[2] = 120 mg/kg, 72 h, dose level High, time 3 day
[3] = 120 mg/kg, 120 h, dose level High, time 5 day

c1ccc([C@H]2CN3CCSC3=N2)cc1 [LEVAMISOLE]
URIC ACID (25 mg/kg, 72 h, dose level Low, time 3 day): 1.67 mg/dL | ABSOLUTE BASOPHIL [1]: 0 CELLS/uL | ABSOLUTE EOSINOPHIL [1]: 174 CELLS/uL | ABSOLUTE LYMPHOCYTE [1]: 12224.67 CELLS/uL | ABSOLUTE MONOCYTE [1]: 328 CELLS/uL | ABSOLUTE SEGMENTED NEUTROPHIL [1]: 1106.67 CELLS/uL | BASOPHIL [1]: 0% | EOSINOPHIL [1]: 1.33% | ERYTHROCYTE COUNT [1]: 5.32 x10E6/uL | HEMATOCRIT [1]: 33.6% | HEMOGLOBIN [1]: 13.4 G/DL | LEUKOCYTE COUNT [1]: 13.83 x10E3/uL | LYMPHOCYTE [1]: 88.33% | MEAN CORPUSCULAR HEMOGLOBIN [1]: 25.2 pg | MEAN CORPUSCULAR HEMOGLOBIN CONCENTRATION [1]: 39.9 G/DL | MEAN CORPUSCULAR VOLUME [1]: 63.2 fL | MONOCYTE [1]: 2.33% | NEUTROPHIL [1]: 8% | NUCLEATED RED BLOOD CELLS [1]: 0 /100WBC | PLATELET COUNT [1]: 1156 x10E3/uL | ALANINE AMINOTRANSFERASE [1]: 50 u/L | ALBUMIN [1]: 4.2 G/DL | ALKALINE PHOSPHATASE [1]: 418 u/L | ASPARTATE AMINOTRANSFERASE [1]: 86.33 u/L | BLOOD UREA NITROGEN [1]: 17.67 mg/dL | CARBON DIOXIDE [1]: 27.33 mmol/L | CHLORIDE [1]: 100.67 MEQ/L | CHOLESTEROL [1]: 69.67 mg/dL | CREATININE [1]: 0.19 mg/dL | GLUCOSE [1]: 136 mg/dL | LACTATE DEHYDROGENASE [1]: 423 u/L | LIPASE [1]: 11 u/L | PHOSPHORUS [1]: 11.83 mg/dL | POTASSIUM [1]: 6.36 MEQ/L | SODIUM [1]: 141.8 MEQ/L | TOTAL BILIRUBIN [1]: 0.23 mg/dL | TOTAL PROTEIN [1]: 5.77 G/DL | URIC ACID [1]: 1.4 mg/dL | ABSOLUTE BASOPHIL [2]: 0 CELLS/uL | ABSOLUTE EOSINOPHIL [2]: 0 CELLS/uL | ABSOLUTE LYMPHOCYTE [2]: 11350 CELLS/uL | ABSOLUTE MONOCYTE [2]: 85 CELLS/uL | ABSOLUTE SEGMENTED NEUTROPHIL [2]: 565 CELLS/uL | BASOPHIL [2]: 0% | EOSINOPHIL [2]: 0% | ERYTHROCYTE COUNT [2]: 7.38 x10E6/uL | HEMATOCRIT [2]: 45.33% | HEMOGLOBIN [2]: 17.77 G/DL | LEUKOCYTE COUNT [2]: 12 x10E3/uL | LYMPHOCYTE [2]: 94% | MEAN CORPUSCULAR HEMOGLOBIN [2]: 24.1 pg | MEAN CORPUSCULAR HEMOGLOBIN CONCENTRATION [2]: 39.17 G/DL | MEAN CORPUSCULAR VOLUME [2]: 61.5 fL | MONOCYTE [2]: 1% | NEUTROPHIL [2]: 5% | NUCLEATED RED BLOOD CELLS [2]: 0 /100WBC | PLATELET COUNT [2]: 1087.67 x10E3/uL | ALANINE AMINOTRANSFERASE [2]: 57.33 u/L | ALBUMIN [2]: 4.4 G/DL | ALKALINE PHOSPHATASE [2]: 373.67 u/L | ASPARTATE AMINOTRANSFERASE [2]: 80.33 u/L | BLOOD UREA NITROGEN [2]: 17.67 mg/dL | CARBON DIOXIDE [2]: 28.33 mmol/L | CHLORIDE [2]: 98 MEQ/L | CHOLESTEROL [2]: 87.33 mg/dL | CREATINE PHOSPHOKINASE [2]: 366 u/L | CREATININE [2]: 0.2 mg/dL | GLUCOSE [2]: 152 mg/dL | LACTATE DEHYDROGENASE [2]: 277.67 u/L | LIPASE [2]: 12 u/L | PHOSPHORUS [2]: 12.7 mg/dL | POTASSIUM [2]: 6.52 MEQ/L | SODIUM [2]: 140.77 MEQ/L | TOTAL BILIRUBIN [2]: 0.13 mg/dL | TOTAL PROTEIN [2]: 6 G/DL | URIC ACID [2]: 2.23 mg/dL | ABSOLUTE BASOPHIL [3]: 0 CELLS/uL | ABSOLUTE EOSINOPHIL [3]: 0 CELLS/uL | ABSOLUTE LYMPHOCYTE [3]: 13503 CELLS/uL | ABSOLUTE MONOCYTE [3]: 159 CELLS/uL | ABSOLUTE SEGMENTED NEUTROPHIL [3]: 804.67 CELLS/uL | BASOPHIL [3]: 0% | EOSINOPHIL [3]: 0% | ERYTHROCYTE COUNT [3]: 5.98 x10E6/uL | HEMATOCRIT [3]: 36.6% | HEMOGLOBIN [3]: 14.47 G/DL | LEUKOCYTE COUNT [3]: 14.47 x10E3/uL | LYMPHOCYTE [3]: 93.33% | MEAN CORPUSCULAR HEMOGLOBIN [3]: 24.23 pg | MEAN CORPUSCULAR HEMOGLOBIN CONCENTRATION [3]: 39.53 G/DL | MEAN CORPUSCULAR VOLUME [3]: 61.17 fL | MONOCYTE [3]: 1% | NEUTROPHIL [3]: 5.67% | NUCLEATED RED BLOOD CELLS [3]: 0 /100WBC | PLATELET COUNT [3]: 1244.33 x10E3/uL | ALANINE AMINOTRANSFERASE [3]: 67.33 u/L | ALBUMIN [3]: 4.1 G/DL | ALKALINE PHOSPHATASE [3]: 355.33 u/L | ASPARTATE AMINOTRANSFERASE [3]: 137.33 u/L | BLOOD UREA NITROGEN [3]: 19.33 mg/dL | CARBON DIOXIDE [3]: 20.33 mmol/L | CHLORIDE [3]: 101 MEQ/L | CHOLESTEROL [3]: 84.33 mg/dL | CREATINE PHOSPHOKINASE [3]: 932 u/L | CREATININE [3]: 0.23 mg/dL | GLUCOSE [3]: 177.33 mg/dL | LACTATE DEHYDROGENASE [3]: 504.67 u/L | LIPASE [3]: 12.67 u/L | PHOSPHORUS [3]: 13.73 mg/dL | POTASSIUM [3]: 6.59 MEQ/L | SODIUM [3]: 143.9 MEQ/L | TOTAL BILIRUBIN [3]: 0.27 mg/dL | TOTAL PROTEIN [3]: 5.67 G/DL | URIC ACID [3]: 3.13 mg/dL
